Publication PMC2845396 (Clinical cancer research : an official journal of the …, 2009)

How the values were obtained:
[1] = system: DNA methyltransferase (DNMT); experiment: DNA methyltransferase enzyme activity in paired tumor biopsies; assay type: in vivo, human; conditions: one patient with hepatocellular carcinoma; 5-AC 15 mg/m^2/d for 14 days
Epstein Barr Virus (EBV) = experiment: EBV viral load in PBMC by real-time PCR; assay type: in vivo, human; conditions: after 5-AC treatment
DNMT = conditions: plasma concentration reached only with 5-AC 75 mg/m^2/d; cited from earlier work
advanced solid tumor = conditions: 5-AC 20 – 25 mg/m^2 daily for 10 days; cited from earlier work
[2] = Plasma pharmacokinetics of PB and metabolites PA and PG; conditions: PB continuous infusion over 24 hours, 400 mg/kg/d, Overall
[3] = Toxicity in patients, graded by NCI CTC version 2.0; assay type: in vivo, human
[4] = system: acetylated histones H3 and H4; experiment: Histone H3 or H4 acetylation in PBMC, summary over patients; assay type: in vivo, human
[5] = human, in vivo, 400 mg/kg/day
[6] = intravenous administration for 5 days, refractory solid tumors; cited from earlier work
G1/G0 growth arrest = conditions: cited from earlier work

Nc1ncn([C@@H]2O[C@H](CO)[C@@H](O)[C@H]2O)c(=O)n1 [5-AC, 5-azacytidine]
inhibition of DNMT activity [1]: 75% and about 75%
patients with reduced viral load (Epstein Barr Virus (EBV)): Three
concentration shown in vitro to cause DNMT inhibition (DNMT): 5 µM
duration of stable disease (advanced solid tumor): 4 – 8 months

O=C(O)Cc1ccccc1 [PA, phenylacetic acid]
Tmax ([2]; mean (range)): 25.30 (23.83–27.98) h
AUC[INF] ([2]; mean ± SD): 26680 ± 11236 µM·h
Cl ([2]; mean ± SD): 9.5 ± 7.6 L/h
Cmax ([2]; plasma, mean ± SD): 1400 ± 504 µM

O=C([O-])CCCc1ccccc1.[Na+] [PB, sodium phenylbutyrate]
confusion, G 3 (CTC grade 3), patients ([3]; human, in vivo): 1
patients with neuro-cortical toxicity attributable to PB ([3]; of 27 patients, PB 400 mg/kg/day, intermittent or continuous 7 day infusion): 3
patients with increased acetylation ([4]; PB infused for just 24 hours, Four of 8 patients): 50%
patients with increased acetylation ([4]; dose schedule B, PB infused for 7 days, 3 of 5 patients): 60%
Vd [5]: 14.0 ± 8.0 L
maximum tolerated dose [6]: 410 mg/kg/day
time to G1/G0 growth arrest (G1/G0 growth arrest): ≤ 96 h
